Reference: patent publication US20220081412A1, “QUINOLINYL-PYRAZINE-CARBOXAMIDE COMPOUNDS AND USES THEREOF” (The Regents of the University of Michigan, priority 2018, published 2022)

System: MIA PaCa-2 cells
Experiment: Bru-seq analysis for nascent RNA synthesis (log2FC of genes, GSEA gene sets)
Type: cell-based, human
[1] = downregulated gene sets, C2, 4 h, MIA PaCa-2 cells

## CCN(CC)CCCC(C)Nc1cnc(C(=O)Nc2cc(C)cc3cccnc23)cn1 (stereo not drawn) [J4, 5-((5-(diethylamino)pentan-2-yl)amino)-N-(6-methylquinolin-8-yl)pyrazine-2-carboxamide]
  ES: 0.576
  NES: 1.841
  synthesis of INSIG1, DHCR7, MVK and MSMO1 RNAs: upregulated
4 h
  expression of GPR135, SPDYA and ABCA1: significant decrease
4 h of treatment
  Cell Cycle, Mitotic pathway: upregulated
AC004076.2, 4 h
  log2FC: −0.85
AC005534.1, 4 h
  log2FC: −0.75
AC005614.2, 4 h
  log2FC: −0.94
AC006141.1, 4 h
  log2FC: −0.78
AC007038.2, 4 h
  log2FC: −1.27
AC007619.1, 4 h
  log2FC: −0.84
AC007620.2, 4 h
  log2FC: −0.89
AC008115.3, 4 h
  log2FC: 0.78
AC008264.2, 4 h
  log2FC: −0.80
AC008906.1, 4 h
  log2FC: −0.98
AC010615.1, 4 h
  log2FC: −1.64
AC011379.1, 4 h
  log2FC: 0.74
AC018630.1, 4 h
  log2FC: −0.77
AC026461.1, 4 h
  log2FC: 0.86
AC068473.5, 4 h
  log2FC: 0.77
AC080080.1, 4 h
  log2FC: 0.72
AC087280.2, 4 h
  log2FC: −0.80
AC091152.2, 4 h
  log2FC: −1.06
AC091940.1, 4 h
  log2FC: −0.79
AC098934.1, 4 h
  log2FC: 0.72
AC108471.2, 4 h
  log2FC: 0.85
AC110769.2, 4 h
  log2FC: 0.80
AC117382.1, 4 h
  log2FC: −0.85
AC141586.1, 4 h
  log2FC: 0.77
AC239868.4, 4 h
  log2FC: 1.12
AL050343.1, 4 h
  log2FC: −0.82
AL133338.1, 4 h
  log2FC: 1.02
AL136984.1, 4 h
  log2FC: −1.05
AL136987.1, 4 h
  log2FC: −0.83
AL139260.1, 4 h
  log2FC: 0.88
AP001107.9, 4 h
  log2FC: 0.81
AP001830.1, 4 h
  log2FC: 0.75
AP002387.1, 4 h
  log2FC: 0.72
AP002748.3, 4 h
  log2FC: 0.76
AVPI1, 4 h
  log2FC: 1.37
BHLHE40, 4 h
  log2FC: 1.32
CASC21, 4 h
  log2FC: −0.87
CCNG2, 4 h
  log2FC: 1.62
DDIT3, 4 h
  log2FC: 1.32
DDIT4, 4 h
  log2FC: 2.33
DEPDC1-AS1, 4 h
  log2FC: 1.05
DHCR7, 4 h
  log2FC: 2.13
DNAJC3-AS1, 4 h
  log2FC: 0.75
EXTL3-AS1, 4 h
  log2FC: 0.73
FDFT1, 4 h
  log2FC: 1.65
FP671120.1, 4 h
  log2FC: −1.32
HIST1H1E, 4 h
  log2FC: 1.24
HIST1H3B, 4 h
  log2FC: 1.26
HMGCS1, 4 h
  log2FC: 1.35
HSD17B7P2, 4 h
  log2FC: 0.76
IDI1, 4 h
  log2FC: 1.49
INSIG1, 4 h
  log2FC: 2.57
KRT18P31, 4 h
  log2FC: 0.81
LINC01204, 4 h
  log2FC: −0.84
LINC01337, 4 h
  log2FC: −1.19
LINC01547, 4 h
  log2FC: 0.93
LINC01930, 4 h
  log2FC: −1.00
LIPG, 4 h
  log2FC: 1.81
LSS, 4 h
  log2FC: 1.25
MSMO1, 4 h
  log2FC: 1.65
MVD, 4 h
  log2FC: 1.36
MVK, 4 h
  log2FC: 1.68
NEU1, 4 h
  log2FC: 2.68
PCYT2, 4 h
  log2FC: 1.70
RNVU1-6, 4 h
  log2FC: −1.50
SCD, 4 h
  log2FC: 1.95
SDR39U1, 4 h
  log2FC: 1.67
SH2D5, 4 h
  log2FC: 1.29
SLC2A1-AS1, 4 h
  log2FC: 1.02
SLC2A6, 4 h
  log2FC: 1.74
SYPL1P2, 4 h
  log2FC: 0.84
TBC1D17, 4 h
  log2FC: 1.62
TPRKBP2, 4 h
  log2FC: −1.15
TUBA1A, 4 h
  log2FC: 1.24
ZNF295-AS1, 4 h
  log2FC: 0.94
[1]
  ES BILD_CTNNBl_ONCOGENIC_SIGNATURE: −0.449
  ES DACOSTA_UV_RESPONSE_VIA_ERCC3_COMMON_DN: −0.439
  ES DACOSTA_UV_RESPONSE_VIA_ERCC3_TTD_DN: −0.469
  ES DACOSTA_UV_RESPONSE_VIA_ERCC3_XPCS_DN: −0.428
  ES DAZARD_UV_RESPONSE_CLUSTER_G6: −0.408
  ES DOANE_BREAST_CANCER_CLASSES_DN: −0.578
  ES GABRIELY_MIR21_TARGETS: −0.328
  ES GUENTHER_GROWTH_SPHERICAL_VS_ADHERENT_DN: −0.531
  ES HAMAI_APOPTOSIS_VIA_TRAIL_UP: −0.368
  ES HAN_JNK_SINGALING_DN: −0.579
  ES HUTTMANN_B_CLL_POOR_SURVIVAL_DN: −0.606
  ES KEGG_NEUROACTIVE_LIGAND_RECEPTOR_INTERACTION: −0.624
  ES LEE_TARGETS_OF_PTCH1_AND_SUFU_UP: −0.515
  ES MARTINEZ_RESPONSE_TO_TRABECTEDIN: −0.482
  ES MILI_PSEUDOPODIA_HAPTOTAXIS_UP: −0.322
  ES RAMALHO_STEMNESS_UP: −0.331
  ES REACTOME_ASSOCIATION_OF_TRIC_CCT_WITH_TARGET_PROTEINS_DURING_BIOSYNTHESIS: −0.551
  ES SENGUPTA_NASOPHARYNGEAL_CARCINOMA_UP: −0.360
  ES SENGUPTA_NASOPHARYNGEAL_CARCINOMA_WITH_LMP1_UP: −0.365
  ES TCGA_GLIOBLASTOMA_COPY_NUMBER_DN: −0.533
  ES THUM_SYSTOLIC_HEART_FAILURE_DN: −0.352
  ES TURASHVILI_BREAST_LOBULAR_CARCINOMA_VS_DUCTAL_NORMAL_DN: −0.476
  ES ZHANG_TLX_TARGETS_36HR_DN: −0.470
  ES ZHANG_TLX_TARGETS_DN: −0.446
  ES ZHENG_FOXP3_TARGETS_IN_T_LYMPHOCYTE_DN: −0.611
  NES BILD_CTNNBl_ONCOGENIC_SIGNATURE: −1.841
  NES DACOSTA_UV_RESPONSE_VIA_ERCC3_COMMON_DN: −2.348
  NES DACOSTA_UV_RESPONSE_VIA_ERCC3_TTD_DN: −1.878
  NES DACOSTA_UV_RESPONSE_VIA_ERCC3_XPCS_DN: −1.784
  NES DAZARD_UV_RESPONSE_CLUSTER_G6: −1.855
  NES DOANE_BREAST_CANCER_CLASSES_DN: −1.830
  NES GABRIELY_MIR21_TARGETS: −1.642
  NES GUENTHER_GROWTH_SPHERICAL_VS_ADHERENT_DN: −1.656
  NES HAMAI_APOPTOSIS_VIA_TRAIL_UP: −1.942
  NES HAN_JNK_SINGALING_DN: −1.665
  NES HUTTMANN_B_CLL_POOR_SURVIVAL_DN: −2.076
  NES KEGG_NEUROACTIVE_LIGAND_RECEPTOR_INTERACTION: −1.898
  NES LEE_TARGETS_OF_PTCH1_AND_SUFU_UP: −1.661
  NES MARTINEZ_RESPONSE_TO_TRABECTEDIN: −1.727
  NES MILI_PSEUDOPODIA_HAPTOTAXIS_UP: −1.718
  NES RAMALHO_STEMNESS_UP: −1.615
  NES REACTOME_ASSOCIATION_OF_TRIC_CCT_WITH_TARGET_PROTEINS_DURING_BIOSYNTHESIS: −1.804
  NES SENGUPTA_NASOPHARYNGEAL_CARCINOMA_UP: −1.794
  NES SENGUPTA_NASOPHARYNGEAL_CARCINOMA_WITH_LMP1_UP: −1.837
  NES TCGA_GLIOBLASTOMA_COPY_NUMBER_DN: −1.738
  NES THUM_SYSTOLIC_HEART_FAILURE_DN: −1.673
